Patent US20130053438A1, “PHARMACEUTICAL COMPOSITIONS COMPRISING LIGNANS AND THEIR DERIVATIVES FOR THE MEDICAL MANAGEMENT OF ANGIOGENESIS AND HYPOVASCULARITY” (Universitat Innsbruck, priority 2010, published 2013)
Where “and” joins values, the source holds several entries; their conditions need not be identical. Identical values can stand only once.

What was measured:
[1] = tested on: small muscle cells and endothelial cells; details: prior art, Reisinger et al. (2009); cited from earlier work
[2] = tested on: wound closure in pigs (Deutsches Landschwein); assay: porcine model for time of wound closure, topical administration; type: in vivo, pig
Experimental: FIG. 9. […] N for control and Leoligin treated wounds is 5. […] Data assessment was conducted in a blinded manner.
For the large animal model 30-35 kg pigs (Deutsches Landschwein) was used. Animals were supplied by, kept, and experiments were performed at the Central Animal Testing Facility of the University of Innsbruck and the “Besondere Einrichtung für Biomedizinische Forschung” of the Medical University of Vienna. Pigs received a standard growth diet.
One hour prior to anaesthesia pigs received an intramuscular injection of 4 mg/kg Azaperon and 0.1 mg/kg Atropin. Full anaesthesia was achieved by intravenously applied 2-3 mg/kg Propofol and 15 mg Piritramid, followed by intubation of animals and ventilation with 30% O2. Muscle relaxation was achieved by an initial does of 8 mg Pancuronium and repetition with 0.2 mg/kg/h Pancuronium. Maintenance of anaesthesia was achieved by continuous infusion with 8-12 mg/kg/h Propofol and 15 mg Piritramid.
In the course of an experimental bypass surgery in the pig, after re-implantation of the graft (into the carotis artery) Leoligin (“Leo”) or NaCl control solution was added into the wound topically (the situs was filled with control solution (0.9% NaCl) or a solution containing leoligin at 100 μM. By optical inspection every 24 hours of blinded researchers the time to wound closure/healing was documented. Animals with infected wounds were excluded from the analysis.

venous bypass grafts = details: prior art, Reisinger (2009); cited from earlier work
[3] = tested on: human microvascular endothelial cells; assay: capillary (endothelial tube) formation on matrigel substrate; type: cell-based; details: within 6 hrs of incubation, quantified by imaging software
Text: (§1) In particular 5-methoxy-leoligin has been shown and exemplified in the appended examples as a potent activator of angiogenesis. […] Furthermore, the pro-angiogenic activity of 5-methoxy-leoligin has been tested in vivo in the chorioallantois membrane (CAM) assay of chicken embryos. […] These assays are recognized in the art to represent functional assays for in vitro and in vivo angiogenesis; see Methods in Endothelial cell biology, H G Augustin Ed.; 2004, Springer Lab Manual, ISBN 3-540-21397-X, Springer —Verlag Berlin, Heidelberg, N.Y..
Cells form tube-like structures between each other within 6 hrs of incubation. Those were quantified by an imaging software.

HUVECs = assay: angiogenic sprouting in a 3-D Collagen matrix (spheroid sprouting assay); type: cell-based; details: after 24 h of stimulation
Text: as §1
These sprouts were analyzed after 24 h of stimulation and “cumulative sprout length” (CSL) of each sprout was quantified in μm.

[4] = tested on: chorioallantois membrane (CAM) of chicken embryos; assay: chicken chorioallantoic membrane (CAM) assay; type: in vivo; details: chicken embryo CAM, each group 5 eggs, p<0.05
Text: as §1
Each group consists of 5 eggs.

endothelial cells = assay: wound scratch healing assay; type: cell-based; details: 1 and 10 μM, 9 hours
Experimental: The upper two images show the migration of endothelial cells into scratch area without treatment (left side) an in the presence of Lag2 (right side). The two images at the bottom are the control images of the scratch size at 0 hours.

| SMILES | induction of cell death [1] | wound healing (in words) ([2]; leoligin 100 μM topical) | time until wound closure after surgery, mean value ([2]; leoligin 100 μM topical, N = 5) | time until wound closure after surgery, individual wounds ([2]; situs filled with solution containing leoligin at 100 μM, topical, inspection every 24 hours, blinded, listed as Leo) | effect on intimal hyperplasia of venous bypass grafts (venous bypass grafts) | capillary formation (tube-like structures) [3] | capillary formation (tube-like structures) ([3]; listed as LaG2) | number and length of angiogenic sprouts (cumulative sprout length) (HUVECs) | number and length of angiogenic sprouts (cumulative sprout length) (HUVECs; listed as LaG2) | vascular density / blood vessel formation [4] | vascular density / blood vessel formation ([4]; listed as LaG2) | migration of endothelial cells into scratch area / wound healing (endothelial cells) |
| --- | --- | --- | --- | --- | --- | --- | --- | --- | --- | --- | --- | --- |
| C/C=C(/C)C(=O)OC[C@H]1[C@@H](Cc2ccc(OC)c(OC)c2)CO[C@@H]1c1ccc(OC)c(OC)c1 [leoligin, [(2S,3R,4R)-4-(3,4-dimethoxybenzyl)-2-(3,4-dimethoxyphenyl)tetrahydrofuran-3-yl]methyl (2Z)-2-methylbut-2-enoat] | did not induce cell death | can successfully be used to promote wound healing | 19.4 days | 19 days and 20 days and 16 days and 21 days (2×) | inhibits intimal hyperplasia of venous bypass grafts |  |  |  |  |  |  |  |
| C/C=C(/C)C(=O)OC[C@H]1[C@@H](Cc2ccc(OC)c(OC)c2)CO[C@@H]1c1cc(OC)c(OC)c(OC)c1 [5-methoxy-leoligin, [(2S,3R,4R)-4-(3,4-dimethoxybenzyl)-2-(3,4,5-trimethoxyphenyl)tetrahydrofuran-3-yl]methyl-(2Z)-2-methylbut-2-enoat] |  |  |  |  |  | significant increase in capillary formation | dose-depentently supported capillary formation | significantly enhanced both the length and number of angiogenic sprouts | significant increase of sprout number and lengths | significantly increased the vascular density | dose-dependently supported embryonic blood vessel formation | promotes the migration of endothelial cells into damaged tissue and stimulates wound healing |
